This experiment concerns MSCs. Put plainly: Gene expression analysis by real-time qPCR in treated MSCs. The format is cell-based, Human. The settings on record: primary MSCs, 1 nM, 10 nM and 1 uM, 2 days, qPCR (Figure 7). Here is the method: MSCs were seeded in triplicate in 6-well plates at 5000 cells/cm^2 and allowed to attach for 10-15 hours in proliferation medium. Upon reaching near confluency, cells were treated as described above. After 2 days of treatment and 2 subsequent days of incubation with fresh medium, cells were lysed immediately with TRIzol. RNA was isolated using a Bioke RNA II nucleospin RNA isolation kit (Machery Nagel) and RNA concentrations were measured using an ND100 spectrophotometer (Nanodrop technologies, USA). cDNA was synthesized from 100 ng of RNA, using iScript (BioRad) according to the manufacturer's protocol. For qualitative PCR, a master mix, containing distilled water, forward primer, reverse primer (Sigma Genosys), BSA, and SYBR green I mix (all from Invitrogen) was prepared. Real-time qPCR was performed in a Light-Cycler (Roche). Light-Cycler data was analyzed using the fit points method of Light-Cycler software. The baseline was set at the lower log-linear part above baseline noise and the crossing […] (Ct value) was determined. Ct values were normalized to the 18S housekeeping gene and delta Ct (Ct, control ― Ct, sample) was used to calculate the upregulation in gene expression (53).

Structures are written as SMILES. Counter-ions that a name gives are not always drawn.

In the case of `CCN(CC)CCCC(C)Nc1c2ccc(Cl)cc2nc2ccc(OC)cc12` (stereo not shown) [Quinacrine hydrochloride], the VEGF gene expression entry was “does not affect VEGF gene expression”.

These data come from patent EP2607478A1, “Phenanthroline treated MSC” (Universiteit Twente, priority 2011, dated 2013).
